The record followed here is ChEMBL document CHEMBL1201862, “PubChem BioAssay data set” (2004).

Activity calls are given as the source filed them.

Experiment [1] is described as follows: cytotoxicity toward NIH3T3 fibroblasts, dose response, counter-screen, cell-based, ATP luminescence, mouse fibroblasts (AID 2010).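 Note: cells exposed to compound for about 90 hours before reading.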 The class given is functional. For orientation: The purpose of a counterscreen is to sort out artefacts and off-target activity.
A further experiment has as its target SUMO-activating enzyme (Homo sapiens, UniProt Q9UBT2). Description: SUMOylation inhibitor hit validation, confirmation, SUMOylation inhibitor project, biochemical, AlphaScreen (AID 2018). In kind it is functional. (Alpha assays give light when donor and acceptor beads are brought close together.)
Experiment [2] in a line: cytotoxicity in HEK-293T cells, dose response, cytotoxicity control for BCR NF-kB inhibitor project, luminescence, B-cell screen hits (AID 489021).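 Note: HEK-293T cells carrying an NF-kB luciferase reporter; cells exposed to compound for about 14 hours before viability readout.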 The class given is functional, cell-based.
The target of experiment [3] is Peroxisome proliferator-activated receptor gamma/Nuclear receptor corepressor 2 (Homo sapiens, UniProt P37231+Q9Y618). The class given is functional.
For experiment [4], the target named is Photoreceptor-specific nuclear receptor (Homo sapiens, UniProt Q9Y5X4). The class given is functional.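 Note: potency for compounds that break the NR2E3 corepressor complex and count as activators.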
Experiment [5] concerns the target RAC-gamma serine/threonine-protein kinase (Homo sapiens, UniProt Q9Y243). The class given is functional.
Experiment [6] deals with Receptor tyrosine-protein kinase erbB-2 (Homo sapiens, UniProt P04626). Description: Navigating the Kinome. Panel member name: ERBB2. The class given is functional.
The target of experiment [7] is Homeodomain-interacting protein kinase 4 (Homo sapiens, UniProt Q8NE63). The class given is functional.
Experiment [8] addresses Proto-oncogene tyrosine-protein kinase ROS (Homo sapiens, UniProt P08922). The class given is functional.
Experiment [9] has as its target Tyrosine-protein kinase Lyn (Homo sapiens, UniProt P07948). In kind it is functional.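 Note: lyn as one member of a kinase panel.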
Experiment [10] concerns the target Serine/threonine-protein kinase D2 (Homo sapiens, UniProt Q9BZL6). The class given is functional.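 Note: measured against PRKD2 as one member of a kinome-wide kinase profiling panel.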
Experiment [11] concerns the target Leucine-rich repeat serine/threonine-protein kinase 2 (Homo sapiens, UniProt Q5S007). In kind it is functional.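 Note: value from a broad kinome-wide panel profiling study in which LRRK2 was one of the kinases tested.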
For experiment [12], the target named is Casein kinase II subunit alpha (Homo sapiens, UniProt P68400). The class given is functional.
In experiment [13] the target is MAP kinase-activated protein kinase 5 (Homo sapiens, UniProt Q8IW41). The class given is functional.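 Note: measured as one member of a kinome panel.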
Experiment [14] concerns the target Tyrosine-protein kinase Lck (Homo sapiens, UniProt P06239). The class given is functional.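 Note: lck was assayed as one member of a kinase panel.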
For experiment [15], the target named is Dual specificity tyrosine-phosphorylation-regulated kinase 4 (Homo sapiens, UniProt Q9NR20). In kind it is functional.
The target in experiment [16] is Serine/threonine-protein kinase pim-1 (Homo sapiens, UniProt P11309). The class given is functional.
For experiment [17], the target named is Tyrosine-protein kinase ITK/TSK (Homo sapiens, UniProt Q08881). In kind it is functional.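 Note: affinity for ITK measured as one member of a broad kinase panel profiling binding across the kinome.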
Experiment [18] addresses Serine/threonine-protein kinase Nek2 (Homo sapiens, UniProt P51955). In kind it is functional.
Experiment [19] addresses Lymphokine-activated killer T-cell-originated protein kinase (Homo sapiens, UniProt Q96KB5). In kind it is functional.
The target in experiment [20] is Tyrosine-protein kinase Fer (Homo sapiens, UniProt P16591). The class given is functional.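 Note: FER tested as one member of a kinome panel.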
Experiment [21] concerns the target Ribosomal protein S6 kinase beta-1 (Homo sapiens, UniProt P23443). In kind it is functional.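 Note: measured as one member of a kinome-wide profiling panel.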
The target of experiment [22] is Serine/threonine-protein kinase TBK1 (Homo sapiens, UniProt Q9UHD2). Description: Navigating the Kinome. Panel member name: TBK1. In kind it is functional.
For experiment [23], the target named is Tyrosine-protein kinase JAK2 (Homo sapiens, UniProt O60674). The class given is functional.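 Note: JAK2 tested as one member of a kinase panel.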
The target in experiment [24] is Receptor tyrosine-protein kinase erbB-4 (Homo sapiens, UniProt Q15303). In kind it is functional.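 Note: ERBB4 member of a kinome-wide kinase profiling panel.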
The target of experiment [25] is Death-associated protein kinase 3 (Homo sapiens, UniProt O43293). In kind it is functional.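 Note: measured as one member of a kinome-wide profiling panel.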
Experiment [26] addresses RAC-alpha serine/threonine-protein kinase (Homo sapiens, UniProt P31749). In kind it is functional.
In experiment [27] the target is Fibroblast growth factor receptor 3 (Homo sapiens, UniProt P22607). In kind it is functional.
For experiment [28], the target named is Protein kinase C iota type (Homo sapiens, UniProt P41743). The class given is functional.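 Note: measured within a kinome-wide kinase panel, PRKCI as panel member.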
In a further experiment the target is Ephrin type-A receptor 2 (Homo sapiens, UniProt P29317). In kind it is functional.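 Note: EPHA2 tested as one member of a kinome-wide kinase panel.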
For experiment [29], the target named is Dual specificity protein kinase CLK2 (Homo sapiens, UniProt P49760). In kind it is functional.
Another experiment has as its target Focal adhesion kinase 1 (Homo sapiens, UniProt Q05397). The class given is functional.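 Note: measured as one member of a kinome panel.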
Experiment [30] concerns the target Calcium/calmodulin-dependent protein kinase type II subunit alpha (Homo sapiens, UniProt Q9UQM7). Description: Navigating the Kinome. Panel member name: CAMK2A. The class given is functional.
Another experiment has as its target Aurora kinase B (Homo sapiens, UniProt Q96GD4). The class given is functional.
Experiment [31] has as its target Ribosomal protein S6 kinase alpha-3 (Homo sapiens, UniProt P51812). In kind it is functional.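 Note: measured within a kinome-wide profiling panel.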
Experiment [32] addresses Dual specificity protein kinase CLK4 (Homo sapiens, UniProt Q9HAZ1). The class given is functional.
The target in experiment [33] is Serine/threonine-protein kinase Nek4 (Homo sapiens, UniProt P51957). The class given is functional.
For experiment [34], the target named is Mitogen-activated protein kinase kinase kinase kinase 4 (Homo sapiens, UniProt O95819). The class given is functional.
Experiment [35] concerns the target Eukaryotic elongation factor 2 kinase (Homo sapiens, UniProt O00418). The class given is functional.
The target of experiment [36] is Dual specificity tyrosine-phosphorylation-regulated kinase 3 (Homo sapiens, UniProt O43781). In kind it is functional.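 Note: measured as one member of a broad kinase panel.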
The target of experiment [37] is Homeodomain-interacting protein kinase 2 (Homo sapiens, UniProt Q9H2X6). In kind it is functional.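 Note: measured within a kinome-wide kinase profiling panel, HIPK2 being one panel member.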
The target of experiment [38] is Serine/threonine-protein kinase pim-3 (Homo sapiens, UniProt Q86V86). In kind it is functional.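 Note: value obtained as one member of a broad kinase panel profiling effort.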
For experiment [39], the target named is Platelet-derived growth factor receptor alpha (Homo sapiens, UniProt P16234). Description: Navigating the Kinome. Panel member name: PDGFRA. In kind it is functional.
The target of experiment [40] is STE20-like serine/threonine-protein kinase (Homo sapiens, UniProt Q9H2G2). The class given is functional.
The target in experiment [41] is Serine/threonine-protein kinase Chk2 (Homo sapiens, UniProt O96017). The class given is functional.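 Note: CHEK2 entry within a kinome-wide screening panel.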
Experiment [42] addresses Serine/threonine-protein kinase pim-2 (Homo sapiens, UniProt Q9P1W9). In kind it is functional.
Experiment [43] deals with Serine/threonine-protein kinase D3 (Homo sapiens, UniProt O94806). In kind it is functional.

Photoreceptor-specific nuclear receptor, sequence (Q9Y5X4 whole entry): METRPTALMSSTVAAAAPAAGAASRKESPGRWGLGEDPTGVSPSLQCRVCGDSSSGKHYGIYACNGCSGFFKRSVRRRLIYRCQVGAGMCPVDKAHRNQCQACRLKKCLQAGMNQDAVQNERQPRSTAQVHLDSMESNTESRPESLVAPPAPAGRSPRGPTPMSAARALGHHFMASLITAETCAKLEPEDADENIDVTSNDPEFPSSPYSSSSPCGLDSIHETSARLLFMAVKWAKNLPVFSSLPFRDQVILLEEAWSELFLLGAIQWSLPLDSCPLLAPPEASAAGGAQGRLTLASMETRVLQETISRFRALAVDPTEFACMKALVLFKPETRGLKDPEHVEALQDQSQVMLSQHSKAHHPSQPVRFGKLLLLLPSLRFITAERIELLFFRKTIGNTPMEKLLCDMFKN
Protein kinase C iota type, sequence (P41743 whole entry): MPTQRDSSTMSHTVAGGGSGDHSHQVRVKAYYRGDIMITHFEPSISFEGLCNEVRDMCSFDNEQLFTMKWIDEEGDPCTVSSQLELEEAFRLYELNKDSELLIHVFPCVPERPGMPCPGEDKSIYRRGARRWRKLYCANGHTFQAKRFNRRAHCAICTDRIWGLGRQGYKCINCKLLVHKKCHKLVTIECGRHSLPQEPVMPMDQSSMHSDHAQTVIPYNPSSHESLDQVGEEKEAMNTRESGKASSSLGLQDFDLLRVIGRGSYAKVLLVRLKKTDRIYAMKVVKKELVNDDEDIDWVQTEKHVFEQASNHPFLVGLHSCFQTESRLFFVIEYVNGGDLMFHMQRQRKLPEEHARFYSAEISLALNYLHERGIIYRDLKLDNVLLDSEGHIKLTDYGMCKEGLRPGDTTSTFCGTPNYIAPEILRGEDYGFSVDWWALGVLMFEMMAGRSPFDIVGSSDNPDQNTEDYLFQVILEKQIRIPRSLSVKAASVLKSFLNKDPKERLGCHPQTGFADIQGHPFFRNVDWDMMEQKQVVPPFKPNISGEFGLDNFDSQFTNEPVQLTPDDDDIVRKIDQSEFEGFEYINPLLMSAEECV
Receptor tyrosine-protein kinase erbB-4, sequence (Q15303 whole entry): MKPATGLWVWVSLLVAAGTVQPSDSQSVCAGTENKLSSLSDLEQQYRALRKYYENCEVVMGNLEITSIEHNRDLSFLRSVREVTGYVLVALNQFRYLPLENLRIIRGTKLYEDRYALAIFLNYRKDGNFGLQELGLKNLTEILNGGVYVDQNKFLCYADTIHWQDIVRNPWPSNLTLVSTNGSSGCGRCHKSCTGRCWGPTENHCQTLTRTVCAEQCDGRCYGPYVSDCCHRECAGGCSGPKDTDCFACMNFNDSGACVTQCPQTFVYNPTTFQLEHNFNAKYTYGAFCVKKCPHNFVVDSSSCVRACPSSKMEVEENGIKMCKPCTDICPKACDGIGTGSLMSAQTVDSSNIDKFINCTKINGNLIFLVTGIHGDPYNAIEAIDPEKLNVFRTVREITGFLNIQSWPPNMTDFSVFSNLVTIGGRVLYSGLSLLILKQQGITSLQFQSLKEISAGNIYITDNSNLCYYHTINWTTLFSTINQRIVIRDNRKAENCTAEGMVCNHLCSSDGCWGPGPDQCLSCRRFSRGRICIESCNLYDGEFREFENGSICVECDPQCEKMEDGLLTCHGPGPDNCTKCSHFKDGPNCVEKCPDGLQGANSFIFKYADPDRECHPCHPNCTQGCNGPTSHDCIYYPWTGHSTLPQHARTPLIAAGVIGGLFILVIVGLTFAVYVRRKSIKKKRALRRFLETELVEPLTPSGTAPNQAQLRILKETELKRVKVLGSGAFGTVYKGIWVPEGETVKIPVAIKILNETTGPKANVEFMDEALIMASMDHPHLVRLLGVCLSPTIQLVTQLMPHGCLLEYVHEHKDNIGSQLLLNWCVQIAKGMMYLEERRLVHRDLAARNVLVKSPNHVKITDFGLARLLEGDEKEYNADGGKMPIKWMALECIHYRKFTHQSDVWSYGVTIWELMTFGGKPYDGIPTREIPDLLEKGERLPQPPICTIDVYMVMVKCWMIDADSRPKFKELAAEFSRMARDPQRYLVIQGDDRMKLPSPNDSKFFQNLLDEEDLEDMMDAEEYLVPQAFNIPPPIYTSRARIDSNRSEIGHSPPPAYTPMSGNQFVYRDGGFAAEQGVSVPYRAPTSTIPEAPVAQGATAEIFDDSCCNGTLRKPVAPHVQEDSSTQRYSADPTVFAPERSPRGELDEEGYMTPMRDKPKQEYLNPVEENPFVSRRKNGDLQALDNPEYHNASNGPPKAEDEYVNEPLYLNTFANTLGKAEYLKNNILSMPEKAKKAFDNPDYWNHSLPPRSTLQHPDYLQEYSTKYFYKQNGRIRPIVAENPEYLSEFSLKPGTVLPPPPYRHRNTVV
Serine/threonine-protein kinase pim-1, sequence (P11309 whole entry): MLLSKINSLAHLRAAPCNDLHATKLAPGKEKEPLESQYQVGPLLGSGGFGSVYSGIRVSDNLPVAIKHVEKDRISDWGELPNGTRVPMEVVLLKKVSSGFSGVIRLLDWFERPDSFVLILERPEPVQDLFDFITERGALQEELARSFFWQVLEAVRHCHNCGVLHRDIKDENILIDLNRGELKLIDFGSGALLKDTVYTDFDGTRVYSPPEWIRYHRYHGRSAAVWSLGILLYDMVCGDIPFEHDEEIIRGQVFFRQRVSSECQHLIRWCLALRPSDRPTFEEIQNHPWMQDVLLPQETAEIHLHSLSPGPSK
RAC-gamma serine/threonine-protein kinase, sequence (Q9Y243 whole entry): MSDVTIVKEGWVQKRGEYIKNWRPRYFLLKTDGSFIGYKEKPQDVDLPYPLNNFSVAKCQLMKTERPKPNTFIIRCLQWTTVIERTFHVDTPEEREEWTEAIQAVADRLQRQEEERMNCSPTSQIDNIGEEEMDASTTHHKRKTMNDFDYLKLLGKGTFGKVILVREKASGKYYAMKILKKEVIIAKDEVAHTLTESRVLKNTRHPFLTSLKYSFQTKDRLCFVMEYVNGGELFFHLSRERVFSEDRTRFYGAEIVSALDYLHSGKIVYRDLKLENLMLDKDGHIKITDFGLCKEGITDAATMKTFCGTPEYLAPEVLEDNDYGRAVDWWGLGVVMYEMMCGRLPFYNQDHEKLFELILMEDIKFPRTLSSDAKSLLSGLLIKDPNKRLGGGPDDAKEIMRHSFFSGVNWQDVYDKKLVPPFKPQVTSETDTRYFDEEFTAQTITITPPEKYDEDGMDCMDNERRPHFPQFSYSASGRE
Calcium/calmodulin-dependent protein kinase type II subunit alpha, sequence (Q9UQM7 whole entry): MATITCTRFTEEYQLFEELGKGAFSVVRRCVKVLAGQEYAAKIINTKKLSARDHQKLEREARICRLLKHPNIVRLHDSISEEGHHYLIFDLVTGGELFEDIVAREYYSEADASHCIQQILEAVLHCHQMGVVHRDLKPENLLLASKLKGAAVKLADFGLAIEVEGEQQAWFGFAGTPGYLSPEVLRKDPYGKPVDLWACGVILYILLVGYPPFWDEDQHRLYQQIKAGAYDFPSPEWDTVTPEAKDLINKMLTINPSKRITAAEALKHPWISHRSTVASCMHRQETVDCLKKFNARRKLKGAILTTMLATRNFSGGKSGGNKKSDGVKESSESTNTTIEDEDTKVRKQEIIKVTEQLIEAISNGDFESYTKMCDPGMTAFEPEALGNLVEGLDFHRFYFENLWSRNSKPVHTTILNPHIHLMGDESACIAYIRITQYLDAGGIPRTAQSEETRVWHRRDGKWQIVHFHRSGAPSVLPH
Serine/threonine-protein kinase Nek2, sequence (P51955 whole entry): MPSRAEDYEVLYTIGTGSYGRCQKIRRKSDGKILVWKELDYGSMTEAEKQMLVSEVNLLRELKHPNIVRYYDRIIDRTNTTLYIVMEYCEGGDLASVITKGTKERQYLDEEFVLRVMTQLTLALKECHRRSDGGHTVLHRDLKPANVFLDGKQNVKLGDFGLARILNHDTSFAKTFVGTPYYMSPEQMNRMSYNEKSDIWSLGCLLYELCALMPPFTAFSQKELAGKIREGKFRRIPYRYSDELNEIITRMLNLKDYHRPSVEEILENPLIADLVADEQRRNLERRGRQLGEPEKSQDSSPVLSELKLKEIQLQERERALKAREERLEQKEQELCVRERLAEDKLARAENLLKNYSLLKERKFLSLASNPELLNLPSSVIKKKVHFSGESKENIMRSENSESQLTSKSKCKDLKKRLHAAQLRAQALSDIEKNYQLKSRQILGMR
Dual specificity tyrosine-phosphorylation-regulated kinase 3, sequence (O43781 whole entry): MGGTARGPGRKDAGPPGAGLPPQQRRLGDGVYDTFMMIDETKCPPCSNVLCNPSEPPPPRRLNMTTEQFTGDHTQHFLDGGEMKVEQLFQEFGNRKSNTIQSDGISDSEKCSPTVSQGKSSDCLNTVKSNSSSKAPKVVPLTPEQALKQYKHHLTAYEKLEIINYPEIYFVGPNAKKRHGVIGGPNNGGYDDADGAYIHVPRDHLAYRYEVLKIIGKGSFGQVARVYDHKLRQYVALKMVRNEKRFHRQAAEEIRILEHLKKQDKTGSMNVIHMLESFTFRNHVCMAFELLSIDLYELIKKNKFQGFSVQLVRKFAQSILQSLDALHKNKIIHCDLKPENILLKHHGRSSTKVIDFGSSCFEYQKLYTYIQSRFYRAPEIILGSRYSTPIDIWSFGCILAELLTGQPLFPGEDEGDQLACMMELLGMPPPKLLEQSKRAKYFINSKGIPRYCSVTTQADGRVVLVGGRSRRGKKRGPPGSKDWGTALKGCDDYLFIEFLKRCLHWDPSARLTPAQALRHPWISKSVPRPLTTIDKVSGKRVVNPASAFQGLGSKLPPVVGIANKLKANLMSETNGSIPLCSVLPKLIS
Casein kinase II subunit alpha, sequence (P68400 whole entry): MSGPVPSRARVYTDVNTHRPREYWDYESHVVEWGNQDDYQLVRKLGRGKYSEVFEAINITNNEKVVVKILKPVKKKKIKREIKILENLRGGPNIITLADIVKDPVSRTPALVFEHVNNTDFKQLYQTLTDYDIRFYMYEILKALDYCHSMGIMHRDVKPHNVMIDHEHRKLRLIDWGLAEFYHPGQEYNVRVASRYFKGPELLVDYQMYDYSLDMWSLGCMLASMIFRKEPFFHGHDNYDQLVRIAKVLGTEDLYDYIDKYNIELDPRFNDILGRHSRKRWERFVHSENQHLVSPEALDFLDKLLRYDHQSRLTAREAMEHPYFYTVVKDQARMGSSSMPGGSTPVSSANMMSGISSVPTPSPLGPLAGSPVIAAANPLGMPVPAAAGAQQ

For the molecule `Cc1c(NC(=O)C(C)OC(=O)c2ccc([N+](=O)[O-])s2)c(=O)n(-c2ccccc2)n1C` (configuration not stated), in experiment [1], the EC50 (as a rule, the concentration needed to bring the measured effect to its halfway point) was > 60 µM (not active).

`COc1cc(Br)c(C(=O)c2nccc3cc(OC)c(OC)cc23)cc1OC`: the IC50 (in general, the midpoint of a concentration-inhibition curve) at SUMO-activating enzyme is 0.42 µM (active); in [2], > 80 µM (inactive); in [3] it was > 39.8 µM (not active); in experiment [4], > 39.8 µM (not active).

In the case of `CC(N)C1CCC(C(=O)Nc2ccnc3[nH]ccc23)CC1` (configuration not stated), the Ki (usually a dissociation constant, usually derived from enzyme kinetics or from competition with a known ligand) in [5] was 2.51 µM (active); in [6] it was > 1.58 µM (inactive); in [7] it was > 7.94 µM (inactive); in experiment [8], > 2 µM (inactive); in experiment [9], > 1.58 µM (inactive); in experiment [10] it was 1 µM (active). The inhibition constant Ki is 0.02 µM (active) in experiment [11]; > 6.31 µM (inactive) in [12]; > 1.58 µM (inactive) in [13]; > 3.98 µM (inactive) in experiment [14]; > 7.94 µM (inactive) in experiment [15]; > 6.31 µM (inactive) in experiment [16]. The Ki in experiment [17] is > 5.01 µM (inactive); in experiment [18], > 10 µM (inactive); in experiment [19], 5.01 µM (active); in experiment [20], > 1.58 µM (inactive); in [21] it was 0.501 µM (active); in [22], > 3.16 µM (inactive). The Ki in experiment [23] was > 1.58 µM (inactive); in [24], > 3.98 µM (inactive); in [25], > 1.26 µM (inactive); in experiment [26] it was 1.26 µM (active); in experiment [27] it was > 2 µM (inactive); in [28], 3.98 µM (active). Also, the Ki was > 3.16 µM (inactive) on Ephrin type-A receptor 2; 1.26 µM (active) in experiment [29]; > 3.16 µM (inactive) on Focal adhesion kinase 1; 3.98 µM (active) in [30]; 1 µM (active) on Aurora kinase B; 1.26 µM (active) in experiment [31]. The Ki in [32] was 0.158 µM (active); in [33] it was > 6.31 µM (inactive); in experiment [34], > 2.51 µM (inactive); in experiment [35] it was > 3.98 µM (inactive); in experiment [36], > 6.31 µM (inactive); in [37], > 3.16 µM (inactive). Further, the Ki in experiment [38] was > 7.94 µM (inactive); in experiment [39], > 2.51 µM (inactive); in experiment [40] it was 5.01 µM (active); in [41], > 1.58 µM (inactive); in experiment [42], > 1.58 µM (inactive); in experiment [43], 0.398 µM (active).
